Several values for one entry are separate records, joined by “and”; a condition that tells them apart may be missing. Identical values can stand only once. Like-named read-outs stand apart in the source and are kept apart here.
Experiments:
[1] = ROS scavenging assay (hydrogen peroxide-dependent oxidation); format: biochemical; details: for Antioxidant Activity (% of Control) ROS Scavenge: C.I. = complete inhibition
Procedure: Hydrogen peroxide-dependent oxidation tests were performed using Oxiselect™ In Vitro ROS/RNS Assay kits (Cellbiolab Inc., San Diego, CA, USA) according to the manufacturer’s protocol. Briefly, a test sample was mixed with hydrogen peroxide (final concentration: 2.5 μmol/L) and incubated for 5 min. A fluorescent reaction was started by the addition of a fluorescent probe (dichrolodihydrofluorescin-DiOxyQ) at room temperature. After incubation for 15 min, relative fluorescent units (RFUs) were measured at […] using a fluorescent plate reader (Infinite M200; Tecan Trading AG, Männedorf, Switzerland). The percentage of control was calculated using the following formula; (A − B)/(C − B) × 100, with A = test sample, B = fluorescent probe alone, and C = vehicle control. (+)-Ascorbic acid was used as a reference agent.

[2] = Plasma pharmacokinetics of KBGY constituents in rats after single oral administration of KBGY; format: in vivo, rat; details: in vivo
Procedure: KBGY prepared in water was administered orally to 16 h fasted rats at a dose of 2 g/10 mL/kg (n = 3). […] Plasma was obtained by centrifugation at 1700× g for 15 min at 4 °C and stored at −80 °C until analysis.
For quantification of the dicarboxylic acid, 50 µL of standard solution, 100 µL of acetic acid (2%, v/v), and 650 µL of ethyl acetate were added to 200 µL of plasma samples, followed by mixing and centrifugation (7000× g, 5 min). The supernatants were collected and dried with a centrifugal evaporator and concentration system (CC-105; TOMY SEIKO Co., Tokyo, Japan). The residue was dissolved with 100 µL acetonitrile and 50 µL BF3/butanol solution; the dissolved solution was incubated for 1 h at 60 °C. The reaction was terminated by the addition of 50 µL of water and hexane, 150 µL of a saturated solution of sodium chloride, and 400 µL of hexane. The solution was vortexed for 2 min, and the supernatant was obtained by centrifugation (7000× g, 5 min). Liquid–liquid extraction was repeated twice. The corrected supernatant was dried with the centrifugal evaporator and concentration system. The dried residue was dissolved in 100 µL of acetonitrile containing 1 µg/mL of o-terphenyl (Tokyo Chemical Ind. Co.) as an internal standard (IS). Five microliters of the solution was then injected into the GC/MS system.
For quantification of volatile organic compounds (cinnamaldehyde, methyl cinnamate, 2-methoxycinnamaldehyde, mandelonitrile, salicylaldehyde, eugenol, cinnamyl alcohol, and 3-phenylpropyl acetate), 25 µL of standard solution, 25 µL of 2 µg/mL of 1,4-dibromobenzene (Tokyo Chemical Ind. Co.) as IS, and 500 µL of acetonitrile were added to 200 µL of plasma samples, followed by mixing and centrifugation (7000× g, 5 min). Five microliters of the supernatant was then injected into the GC/MS system.
For quantification of other compounds, 25 µL of standard solution, 25 µL of 2 ng/mL of atropine sulfate monohydrate (Wako Pure Chemical Ind.) or niflumic acid (Sigma-Aldrich) as IS, and 750 µL of methanol were added to 200 µL of plasma samples, followed by mixing and centrifugation (7000× g, 5 min). The supernatant was obtained and dried with the centrifugal evaporator and concentration system after 150 µL of propylene glycol (1%, v/v) was added to the supernatant. The dried residue was then dissolved in 60 μL of the HPLC mobile phase for each analytical method, and a 10 or 20 μL portion was injected into the LC/MS/MS system.
Plasma pharmacokinetic data were analyzed by noncompartmental modeling using Phoenix WinNonlin (version 6.3, Certara L.P., St. Louis, MO, USA) to determine various pharmacokinetic constants, including the maximum concentration (Cmax), time to maximum concentration (tmax), apparent elimination half-life (t1/2), and area under the plasma concentration-time curve from zero to last observation time (AUC0–last). The t1/2 was divided by loge^2/ke, where ke was the terminal elimination (at least three data points on the descending linear limb) rate constant.

[3] = Lipid hydroperoxide (LPO) generation assay (linoleic acid, Fenton reaction); format: biochemical
Procedure: Antioxidant assays using linoleic acid with a purity of 98.0% (Wako Pure Chemical Ind.) were performed using a described protocol with modifications. Briefly, 20 μL of 1% linoleic acid in methanol, 20 μL of 20 mmol/L ferrous chloride in water, 20 μL of test sample in DMSO, and 150 μL of a mixed solution (1:1) of methanol and 20 mmol/L phosphate buffer (pH 7.0) were added to 96-well polypropylene plates. After incubation at room temperature in the dark for 1 h, 10 μL of the reaction products were transferred to 200 μL of a methanol solution containing 39 mmol/L ammonium thiocyanate, 0.2 mmol/L ferrous chloride, and 0.01 mol/L hydrochloride. After incubation for 15 min, absorbance at 500 nm was measured using a microplate reader (Multiskan GO, Thermo Fisher Scientific Inc., Waltham, MA, USA). The concentration of lipid hydroperoxide (LPO) products was calculated conveniently using standard curves of serially-diluted linolein hydroperoxides (Cayman Chemical). The percentage of control was calculated using the following formula; (A − B)/(C − B) × 100, with A = test sample, B = linoleic acid alone, and C = vehicle control. Ascorbic acid was used as a reference agent.

[4] = 10 μmol/L, more than 100% = no activity
[5] = rat plasma, single oral KBGY 2 g/kg, read-out: tmax

SMILES	Antioxidant Activity (% of Control) ROS Scavenge [1, 4]	AUC(0-t) ([2]; rat, po, 2 g/kg)	Cmax ([2]; rat, po, 2 g/kg)	Tmax ([2]; rat, po, 2 g/kg)	half-life ([2]; rat, po, 2 g/kg)	Antioxidant Activity (% of Control) LPO Generation [3, 4]	AUC(0-t) ([2]; rat plasma, single oral KBGY 2 g/kg, read-out: AUC0–last)	Cmax ([2]; rat plasma, single oral KBGY 2 g/kg, read-out: Cmax)	half-life ([2]; rat plasma, single oral KBGY 2 g/kg, read-out: t1/2 (converted))	Tmax [2, 5]	Antioxidant Activity (% of Control) ROS Scavenge ([1]; 1 μmol/L)	anti-ROS activity ([1]; 10 μmol/L)	AUC0–last ([2]; rat, po, 2 g/kg)	Antioxidant Activity (% of Control) LPO Generation ([3]; 1 μmol/L)	Antioxidant Activity (% of Control) LPO Generation ([3]; 10 μmol/L, more than 100% = no activity, listed as (±)-syringaresinol)	ROS scavenging activity (% control) ([1]; 0.313 μmol/L)	IC50 ([1]; concentration-dependency, Figure 4)	Antioxidant Activity (% of Control) LPO Generation ([3]; 10 μmol/L, more than 100% = no activity, listed as gallic acid)	Inhibition of LPO generation ([3]; 3 and 10 μmol/L, Figure 4)
COc1c(O)cc(C(=O)O)cc1O [4-O-Methylgallic acid]	86.8 ± 0.2 % of Control	479 ng·h/mL	159 ng/mL and 863 nM	1 h	0.906 h	105.4 ± 2.5 % of Control	–	–	–	–	–	–	–	–	–	–	–	–	–
N#C[C@H](O[C@@H]1O[C@H](CO)[C@@H](O)[C@H](O)[C@H]1O)c1ccccc1 [Prunasin]	102.2 ± 1.1 % of Control	–	–	–	–	97.9 ± 3.3 % of Control	3700 ng·h/mL	1450 ng/mL and 4.91 µM	1.16 h	1 h	–	–	–	–	–	–	–	–	–
COc1cc([C@H]2OC[C@H]3[C@@H]2CO[C@@H]3c2cc(OC)c(O)c(OC)c2)cc(OC)c1O (racemic) [(±)-Syringaresinol]	C.I.	–	–	0.25 h	–	68.4 ± 3.3 % of Control	–	–	–	–	39.4 ± 2.4 % of Control	strong anti-ROS activity	0.0771 ng·h/mL	107.4 ± 4.2 % of Control	less than 80 % of Control	–	–	–	–
O=C1OC[C@H](Cc2cccc(O)c2)[C@H]1Cc1cccc(O)c1 [Enterolactone]	C.I.	1.33 ng·h/mL	1.07 ng/mL and 4 nM	4 h	–	86.1 ± 0.9 % of Control	–	–	–	–	81.6 ± 2.9 % of Control	strong anti-ROS activity	–	102.1± 2.7 % of Control	–	–	–	–	–
O=C(O)c1cc(O)c(O)c(O)c1 [Gallic acid]	14.5 ± 0.7 % of Control	172 ng·h/mL	84.9 ng/mL and 499 nM	–	0.772 h	74.0 ± 2.5 % of Control	–	–	–	0.5 h	–	strong anti-ROS activity	–	–	–	71.1 % control	954 nM	less than 80 % of Control	significantly inhibited LPO generation
